Values joined by “and” are separate entries in the source; they are usually repeats but may differ in a detail not shown here. Equal values may be shown once.
Columns and labels:
[1] = General statement on toxicity, side effects and healing effect
dermal ulcer = assay: Dermal ulcer occurred in a rheumatic patient (Test Example 3); type: in vivo, human; conditions: same ointment as Test Example 2 (0.5%)
From the text: (Dermal ulcer occurred in a rheumatic patient)
The same ointment as used in Test Example 2 was applied directly or applied using a gauze over which said ointment had been spread, to a dermal ulcer occurred on a sacral region, sciatic tuber region, elbow head, inner and outer ankle regions and heel region of a person suffering from arthrorheumatism under hospital treatment.

frostbite = assay: Frostbite, human patient (Test Example 5); type: in vivo; conditions: same ointment as Test Example 2 (0.5%), about one week
burn ulcer = assay: Burn ulcer, human patient (Test Example 4); type: in vivo; conditions: same ointment as Test Example 2 (0.5%), after one week
Acute toxicity in mice = conditions: mouse, in vivo
skin pruritus = assay: Skin pruritus, human patient (Test Example 7); type: in vivo; conditions: same ointment as Test Example 2 (0.5%)
skin keratosis = assay: Skin keratosis, human patient (Test Example 8); type: in vivo; conditions: same ointment as Test Example 2 (0.5%), three days after treatment
bedsore = assay: Bedsore, human patient (Test Example 2); type: in vivo; conditions: oil ointment containing 0.5% by weight of TOC ester on gauze
From the text: An oil ointment containing 0.5% by weight of TOC ester spread on a gauze was applied to the bedsore areas occurred in the ischium and whirlbone of a person lying in bed for a long time suffering from injury of myelon, said gauze being embedded in a depressed region of deep ulcer of bedsore after crumpling the gauze into a ball, and being applied as it was to a superficial region of the ulcer. The gauze was exchanged once or twice a day.

guinea pigs = assay: Appearance of skin allergy in guinea pigs (induction test); type: in vivo; conditions: challenge two weeks after sensitization, 0.1 ml acetone solution containing 0.05%, 0.10% and 0.20% of TOC ester
Experimental: Appearance of skin allergy in guinea pigs
Induction tests were conducted, wherein guinea pigs were sensitized with 0.1 ml of 30% chloroform solution, and two weeks after sensitization, the pigs were treated on the skin with 0.1 ml of acetone solution containing 0.05%, 0.10% and 0.20% of TOC ester, respectively.

human being = assay: Chafe on human being (Patch test); type: in vivo; conditions: cream containing 0.1% and 0.3% of TOC ester
From the text: Chafe on human being (Patch test)

experimental bedsore = assay: Experimental bedsore of rabbits; type: in vivo, Japanese white male rabbits
From the text: (Experimental bedsore of rabbits)
Japanese white male rabbits weighing 2.5-4.4 kg were used.
An experimental bedsore was formed on the rabbits in accordance with the methods of Kosiak (Arch. Phys. Med. Rehabil., Vbl. 40, 62-69, 1959) and Fukawa et al. (Applied Pharmacology, Vol. 23, No. 6, 999-1011, 1982). The rabbits were anethetized with Nembutal® and fixed so that the shaved right trochanteric region of the rabbits was held horizontally, a pressure of 500-600 mmHg/cm^2 was applied to 2 cm^2 area of the skin in the shaved region, and the rabbits were held for 5-10 hours to allow development of bedsore. Two days after application of the pressure, occurrence of bedsore was confirmed.
The affective rabbits were distributed to two groups. One group (5 rabbits) was coated on the surface of bedsore region with a lotion containing 0.5% by weight of TOC ester by a brush once a day (said lotion being prepared from 900 parts by weight of water, 95 parts by weight of ethanol and 5 parts by weight of TOC ester). The other control group (4 rabbits) was coated once a day with only the base of the lotion (mixture of 900 parts of weight of water and 95 parts by weight of ethanol). One week after the treatment, a sheet of Japanese paper was applied to the bedsore area occurred in each rabbit. The injured area of said bedsore was transferred to the paper according to the etching method, and the transferred areas were measured by means of a planimeter.

[2] = tested on: ulcer produced after zoster; assay: Zoster, human patient (Test Example 6); type: in vivo
From the text: To an ulcer produced after zoster had occurred on the neck through the shoulder of a person was applied a gauze over which the same ointment as used in Test Example 2 had been spread.

housewife eczema = assay: Housewife eczema, human patient (Test Example 11); type: in vivo; conditions: same hydrophilic ointment as Test Example 10 (0.3%), in a week
eczema craquele = assay: Eczema craquele (cracking and chaps), human patient (Test Example 10); type: in vivo; conditions: hydrophilic ointment containing 0.3% by weight of TOC ester
From the text: [Eczema craquele (cracking and chaps)]

eyes of rabbits = assay: Irritation on eyes of rabbits; type: in vivo; conditions: physiological salt suspensions containing 0.05% and 0.5% of TOC ester
From the text: Irritation on eyes of rabbits

callosity = assay: Callosity, human patient (Test Example 9); type: in vivo; conditions: lotion containing 0.5% by weight of TOC ester, about two weeks
rats = assay: Percutaneous subacute toxicity in rats; type: in vivo; conditions: lotions containing 0.5% and 1.5% of TOC ester
Experimental: Percutaneous subacute toxicity in rats
Tests were conducted for 30 days using lotions containing 0.5% and 1.5% of TOC ester, respectively.

CC(C=CC1=C(C)CCCC1(C)C)=CC=CC(C)=CC(=O)Oc1c(C)c(C)c2c(c1C)CCC(C)(CCCC(C)CCCC(C)CCCC(C)C)O2 (stereo not drawn) [TOC ester, tocopheryl retinoate]
side effects [1]: almost no side effects
toxicity [1]: extremely low in toxicity
adverse side effects (dermal ulcer; during treatment period): No adverse side effects was observed
proliferation of the granulation and epidermization (dermal ulcer; large ulcers, about three months): marked improvements in proliferation of the granulation and in epidermization
proliferation of the granulation and epidermization (dermal ulcer; small ulcers, about two weeks): marked improvements in proliferation of the granulation and in epidermization
healing of frostbite (frostbite): an improvement in healing of frostbite
healing of burn ulcer (burn ulcer): a remarkable improvement in healing of the ulcer
LD50 (Acute toxicity in mice; im): > 2500 mg/kg
LD50 (Acute toxicity in mice; ip): > 10000 mg/kg
LD50 (Acute toxicity in mice; po): > 10000 mg/kg
LD50 (Acute toxicity in mice; sc): > 2500 mg/kg
itching sensation (skin pruritus; one day after treatment): itching sensation ceased
healing of skin pruritus (skin pruritus; three days after the treatment): the skin pruritus healed perfectly
healing of skin keratosis (skin keratosis): a marked improvement in healing of the disease
bottom region of deep ulcer, buildup of flesh owing to granulation (bedsore; about one month): marked buildup of flesh owing to granulation at the bottom region of deep ulcer
improvement in cuticularization along the circumference of ulcer (bedsore; about one month): a remarkable improvement in cuticularization
width of cuticularization along the circumference of ulcer (bedsore; about one month): about 5 mm
superficial region of ulcer, epidermization (bedsore; after one week): epidermization was observed on the superficial region of ulcer
superficial region of ulcer, disappearance of sore and closure (bedsore; two weeks thereafter): sore disappeared from the superficial region of ulcer, and the epidermis was formed to close the sore region
contact skin allergy (guinea pigs): No contact skin allergy was observed
rubor or expansion (patch test) (human being): no rubor or expansion was observed at all
Injured area difference, Average ± standard deviation (experimental bedsore; lotion containing 0.5% TOC ester group, 5 rabbits, one week, control 0.907 ± 0.292): 1.82 ± 0.213 cm2
Injured area after one week (experimental bedsore; lotion containing 0.5% TOC ester once a day, individual rabbits): 1.30 cm2 and 0.98 cm2 and 0.70 cm2 and 0.09 cm2 and 0.23 cm2
Injured area at the initiation of treatment (experimental bedsore; lotion containing 0.5% TOC ester, individual rabbits, before treatment): 2.68 cm2 and 3.01 cm2 and 1.95 cm2 and 2.20 cm2 and 2.56 cm2
Injured area, Difference (experimental bedsore; lotion containing 0.5% TOC ester, individual rabbits, initiation minus after one week): 1.38 cm2 and 2.03 cm2 and 1.25 cm2 and 2.11 cm2 and 2.33 cm2
reduction in the injured area of bedsore (experimental bedsore; lotion containing 0.5% by weight of TOC ester, once a day, one week, 5 rabbits): marked reduction in the injured area of bedsore
healing of the ulcer after zoster ([2]; same ointment as Test Example 2 (0.5%) on gauze, about one week): a marked improvement in healing of the ulcer
recurrence ([2]; same ointment as Test Example 2 (0.5%), six months after the healing): no recurrence was observed
healing of housewife eczema (housewife eczema): a marked improvement in healing of the disease
adverse side-effects (eczema craquele; during the period of treatment): no adverse side-effects were observed
healing of eczema craquele (eczema craquele; one month): a marked improvement in healing of the disease
healing of eczema craquele (eczema craquele; two months): the disease perfectly healed
irritation on eyes (eyes of rabbits): no change was observed
improvement of callosity (callosity): an improvement such as softening of the callosity
change in general symptoms, dermal symptoms and body weight (rats; 30 days): no change in general symptoms, dermal symptoms and body weight
change in blood and physiological examinations, anatomical observation, wet weight of organs, and pathological histological examination (rats; after 30 days): no change was observed at all
